Results reported in US20190328857A1, “CALR AND JAK2 VACCINE COMPOSITIONS” (IO Biotech ApS, priority 2016, published 2019).

How the values were obtained:
Assay type in all cases: cell-based, human
autologous CALRmut cells = test: Intracellular cytokine staining of CALRLong1-specific T cells stimulated with autologous target cells; conditions: siRNA-transfected autologous CD14^+ myeloid target cells, 48 h after transfection, compared to negative controls
Protocol: As target cells, we used autologous CD14^+ monocytes and B-cells (BCL). As described above, CD14^+ monocytes were isolated using the MACS CD14 MicroBead kit. An autologous B-cell line was generated using EBV transfection of donor BCL at the Health Protection Agency Culture Collections, Salisbury, UK.
(§1) Frozen T-cells were thawed one day prior to assaying, and in experiments examining CD107a expression, a CD107a-PE antibody was added to cells directly after addition of peptide or target cells. After one hour of stimulation, protein-transport inhibitor Brefeldin A (BD Biosciences, San Jose, Calif., USA) was added to the cells which were then stimulated for four h. Cells were stained with CD3-APC-H7, CD4-FITC, CD8-PerCP, IFN-γ-APC, TNF-α-BV421 and Fixable Viability Stain 510 (BD Biosciences, San Jose, Calif., USA), permeabilized and washed with Permeabilization Reagent/Diluent and fixation-permeabilization buffer (AH Diagnostics, Aarhus, Denmark). Cells were acquired with a FACS Canto II (BD Biosciences) and analyzed using FACSDiva software. All effector cell stimulations were run in triplicate wells if not otherwise specified.
Autologous CD14^+ monocytes were cultured with CellGro, GM-CSF (1000 U/ml) and IL-4 (250 U/mL) and transfected with either CALR siRNA or negative-control siRNA (Invitrogen) the next day, using electroporation parameters as described previously (Met et al., 2011). In brief, monocytes were washed twice, suspended in Opti-MEM medium (Invitrogen) and adjusted to a final cell density of 10^7 cells/ml. The cell suspension (200 μl) was preincubated for 5 min on ice and subsequently, together with 5 μl of CALR siRNA or 10 μl of negative control siRNA transferred to a 2-mm gap electroporation and pulsed using a BTX 830 square-wave electroporator (Harvard Apparatus, Holliston Mass., USA). Electroporation settings were adjusted to a single pulse, 250 V, 2 ms. […]
As target cells, we used CD14^+ monocytes with CALRmut allelic burden of 71% and autologous EBV-transformed immortalized B-cells with a CALRmut allelic burden of 0% determined by PCR analysis. […]

[1] = system: CALRLong1-specific T-cells; test: Intracellular cytokine staining of CALRLong1-specific T-cell culture stimulated with peptide; conditions: after three stimulations with autologous dendritic cells
Protocol: Fresh PBMCs were first enriched for CD14+ cells using MACS CD14 MicroBeads (Miltenyi Biotech GmbH, Bergisch Gladbach, Germany). This was considered day 0. The resulting monocyte-depleted cell culture was termed peripheral blood lymphocytes (PBL). The enriched cells were cultured using CellGro (CellGenix GmbH, Freiburg, Germany), and stimulated with GM-CSF (1000 U/ml) and IL-4 (250 U/ml) (both PeproTech, Rocky Hill, N.J., USA). The next day, to generate fast dendritic cells (fastDC), we treated half of the enriched cells with a maturation cocktail comprising IFN-γ (1000 U/ml) (PeproTech, Rocky Hill, N.J., USA), PolyI:C (20 μg/ml) (Sigma-Aldrich, St. Louis, Mo., USA) and CALRLong1 peptide. PBL were cultured overnight in X-VIVO medium (Lonza Group Ltd., Basel, Switzerland) and then stimulated with half of the fastDC. The other half of the fastDC were frozen for later use.
The other half of the enriched cells were cultured until day 7, at which time these cells were treated with the same maturation cocktail as above, to generate mature dendritic cells (mDC). The next day, these mDC were used to stimulate PBLs. On day 9, IL-2 (120 U/mL) (Novartis, Basel, Switzerland) and IL-7 (40 U/ml) (PeproTech, Rocky Hill, N.J., USA) was added. On day 14, we thawed the fastDC that had been frozen on day 2, and used these cells to stimulate the PBL. On day 16 and day 24 we added, IL-2 and IL-7 in the concentrations mentioned above.
At day 38 of the T-cell culture, we stimulated the T-cells with CALRLong1 peptide for 4 h and next isolated IFN-γ secreting cells using the MACS IFN-γ secretion assay. The isolated cells were expanded using a rapid expansion protocol. The vast majority of cells that reacted to CALRLong1 peptide stimulation were CD4^+ T-cells; thus, we isolated CD4^+ T cells from the REP culture using the EasySep Human CD4 isolation Kit (StemCell Technologies, Inc., Vancouver, BC, Canada). The enriched CD4^+ T-cells were then cloned by limiting dilution, and growing T-cell clones were rapidly expanded using feeder cells and high dose IL-2 (6000 u/ml). T-cell receptor clonotyping of the cloned cells was performed by denaturing gradient gel electrophoresis as previously described.
as §1

PBMC from healthy donors = test: IFN-γ ELISPOT on PBMC from healthy donors
Source text: The ELISPOT assay is based on the detection of antigen induced release of cytokines—most often IFN-γ—by single T-cells upon triggering of its T-cell receptor. Reactivity of a single T-cell can be detected and quantified via binding of the respective cytokine on special nitrocellulose filter plates. When a T-cell recognizes the peptide epitope examined, the T-cell releases cytokines that are detected by a colorimetric reaction using an enzyme conjugated to a secondary cytokine specific antibody. The reaction product is visible as a spot. Ideally, each spot represents the cytokines secreted by a single activated cell. ELISPOTs were performed and analyzed as described previously (Munir et al., 2013). PBMCs were tested in different concentrations to ensure an optimal response. The distribution-free resampling method, described by Moodie et al., was used for statistical analyses and a p-value ≤0.05 was deemed a T-cell response (Moodie et al., 2010).
PBMC from healthy donors were analyzed by IFN-γ ELISPOTs as described in Example 1 for immune responses against the CARL-mutant epitopes CALRLong1 ([…]), CALRLong2 ([…]), CALRLong4 ([…]) and CALRLong5 ([…]). […]

[2] = system: peptide-pulsed T2 and K562 cells; test: Standard Cr^51 cytotoxicity assay with JAK201-specific T cells and peptide-pulsed target cells
JAK201-specific T cells = test: ELISPOT of JAK201-specific T cells stimulated with peptide
Protocol: T-cells reactive against the mutant JAK2 peptide VLNYGVCFC (SEQ ID NO: 7) were prepared. The establishment of specific T cell cultures against a peptide was described previously (Munir S, Andersen G H, Met Ö, et al. HLA-restricted CTL that are specific for the immune checkpoint ligand PD-L1 occur with high frequency in cancer patients. Cancer Res. 2013). In short, peripheral blood mononuclear cells (PBMCs) from an HLA-A2 positive healthy donor were stimulated with JAK201-loaded autologous dendritic cells followed by stimulation with IL-2, IL-7, and IL-12. Generation of dendritic cells followed our previously published methods. (Munir S, Andersen G H, Met Ö, et al. HLA-restricted CTL that are specific for the immune checkpoint ligand PD-L1 occur with high frequency in cancer patients. Cancer Res. 2013). The HLA-A2 high affinity-binding epitope HIV-1 ([…]; SEQ ID NO: 26) and JAK201 (JAK201 wt) wild-type epitope (VLNYGVCVC; SEQ ID NO: 25) were used as controls. These cells were activated in response to the mutant JAK2 peptide and were capable of killing cells presenting the mutant JAK2 peptide. The T-cells were also activated when presented with cancer cells carrying the JAK2 mutation, and were capable of killing these cancer cells. This was dependent on the cells' ability to express the mutated JAK2 peptide, as shown by experiments performed with siRNA (FIG. 6).
The specificity of the T cells was first analysed by ELISPOT. […] The only difference between the JAK201 mutant peptide (SEQ ID NO: 7) and JAK201 wild-type (SEQ ID NO: 25) peptides is the valine-to-phenylalanine substitution, and, subsequently, we scrutinized the possible cross-reactivity between the two peptides. […] This was confirmed by ICS (not shown).

[3] = of 21 (CALRLong1), 23 (CALRLong2), 9 (CALRLong4), 7 (CALRLong5) analyzed

## CALR siRNA: siRNA duplex, sense GGAGCAGUUUCUGGACGGATT, antisense UCCGUCCAGAAACUGCUCCTT (chemistry not given here)
Autologous CALRmut cells
  decrease in the proportion of IFN-γ/TNF-α double-positive T cells: ~50%

## KMRMRRMRRTRRKMRRKMSP (listed as Homo sapiens) [CALRLong3]
[1]
  response of CD4^+ T cells of the CALRLong1 bulk culture to peptide stimulation: reacted

## RRMMRTKMRMRRMRRTRRKMRRKMSPARPRTSCREACLQGWTEA (listed as Homo sapiens) [CALRLong5]
[1]
  response of CD4^+ T cells of the CALRLong1 bulk culture to peptide stimulation: reacted
PBMC from healthy donors
  immune responses of healthy donors in IFN-γ ELISPOT: strong immune responses
PBMC from healthy donors; [3]
  healthy donors with a significant response in IFN-γ ELISPOT: 7
  healthy donors with a significant response in IFN-γ ELISPOT, percentage: 100%

## VLNYGVCFC (listed as Homo sapiens) [JAK201]
[2]
  recognition of HLA-A2-transfected K562 cells pulsed with peptide: able to recognize
  recognition of HLA-A3-transfected K562 cells pulsed with peptide: not recognized
[2]; compared with JAK201 wt peptide
  affinity of the T cells for the peptide: higher affinity
[2]; versus HIV control peptide
  killing of peptide-pulsed TAP-deficient T2 cells: killed
JAK201-specific T cells
  release of IFN-γ compared with JAK201 wt peptide: significantly more
  release of TNF-α compared with JAK201 wt peptide: significantly more
JAK201-specific T cells; compared with HIV controls
  peptide-specific release of IFN-γ: significant
  peptide-specific release of TNF-α: significant

## VLNYGVCVC (listed as Homo sapiens) [JAK201 wt, reference compound]
[2]; Cr^51 cytotoxicity, peptide titration
  cross-reactivity between mutant and wild-type peptide: some cross-reactivity
[2]; compared with JAK201 peptide
  concentration of peptide required to activate T cells to kill target cells: higher concentration
